Measured values reported in patent US20190276389A1, “SYNTHESIS OF ARYL CYCLOHEXANE ESTER DERIVATIVES USEFUL AS SENSATES IN CONSUMER PRODUCTS” (The Procter & Gamble Company, priority 2015, published 2019).

How the values were obtained:
human TRPM8 [1] = test: TRPM8 Protocol-FLIPR Assay (intracellular Ca2+ in HEK-293 cells stably transfected with human TRPM8); assay type: cell-based; conditions: HEK-293 cells stably transfected with human TRPM8, Fluo-4 AM, read-out: TRPM8 EC 50 Value
Description: (§1) Trypsin was inactivated by addition of 8 ml growth medium. Cells were transferred to a 50 ml tube and centrifuged at 850 rpm for 3 minutes to remove medium. After centrifugation, a pellet of cells was formed in the bottom of the tube separating them from the supernatant solution. […] Fluo-4 AM is a fluorescent dye used for quantifying cellular Ca^2+ concentrations in the 100 nM to 1 microM range. At the end of 30 minutes, 45 ml of assay buffer (1×BSS (Hank's Balanced Salt Solution), 20 mM HEPES (4-(2-Hydroxyethyl)-1-piperazineethanesulfonic acid)) was added to wash cells and the resulting mixture was then centrifuged at 850 rpm for 3 minutes to remove excess buffer and Fluo-4 AM calcium indicator.
(§2) The pelleted cells were re-suspended in 10 ml assay buffer and 90 μl aliquots (˜50,000 cells) per well delivered to a 96-well assay plate containing 10 μl of test compounds (1 mM in assay buffer, final concentration 100 μM) or buffer control and incubated at room temperature for 30 minutes. After 30 minutes, a plate was placed into a fluorometric imaging plate reader (FLIPR384 from Molecular Devices, Sunnyvale, Calif.) and basal fluorescence recorded (excitation wave length 488 nm and emission wave length 510 nm). Then 20 μl of […] of TRPM8 agonist WS5 coolant in the assay buffer was added and fluorescence recorded. For determining the direct effect of test compounds on TRPM8, fluorescence was measured immediately after addition of each compound (TABLE 1).

[2] = Sensory evaluation of cooling intensity after brushing with dentifrice; assay type: in vivo; conditions: avg 7 panelists, dentifrice with 0.001% (10 ppm) coolant
Description: Dentifrices were prepared using conventional methods, such as the protocols described in U.S. Pat. No. 8,747,814, which contained no coolant (SAMPLE A—Crest Cavity Protection) or having a coolant from TABLE 1 (SAMPLE B), in a flavor (wintergreen) at 10 parts per million (ppm).
Sensory evaluation studies of coolant activity were conducted using a methodology patterned after the techniques described in M. C. Meilgaard, et al., Sensory Evaluation Techniques, 4th Ed. (2007). Seven panelists brushed with a dentifrice from TABLE 2, having no coolant (SAMPLE A) or having a coolant from TABLE 1 (SAMPLE B), for two minutes, in a flavor (wintergreen) at 10 parts per million (ppm). After brush expectoration, panelists then rinsed their mouth with 15 ml of an aqueous rinse and expectorated.

human TRPM8 [3] = target: human TRPM8 (UniProt Q8R4D5); test: TRPM8 Protocol-FLIPR Assay (intracellular Ca2+ in HEK-293 cells stably transfected with human TRPM8); assay type: cell-based; conditions: HEK-293 cells stably transfected with human TRPM8, Fluo-4 AM
Description: as §1, §2

[4] = concentration where the cooling effect could be clearly recognized; cited from earlier work

SMILES	EC50 (human TRPM8 [1]) [nM]	further results
CC(C)[C@@H]1CC[C@@H](C)C[C@H]1C(=O)OC[C@@H](NC(=O)CNC(=O)OC(C)(C)C)c1ccccc1 [#3]	23200	
CC1CCC(C(C)C)C(OC(=O)C(N)c2ccccc2)C1 (centres unmarked) [#5]	60200	
CC(C)[C@@H]1CC[C@@H](C)C[C@H]1OC(=O)C[C@@H](NC(=O)OC(C)(C)C)c1ccccc1 [#6]		TRPM8 EC 50 Value (human TRPM8 [3]): Too high to measure
CC1CCC(C(C)C)C(OC(=O)CC(N)c2ccccc2)C1 (centres unmarked) [#7]	8000	
CC(C)[C@@H]1CC[C@@H](C)C[C@H]1OC(=O)C[C@@H](NC(=O)CNC(=O)OC(C)(C)C)c1ccccc1 [#8]		TRPM8 EC 50 Value (human TRPM8 [3]): Too high to measure
CC(C)[C@@H]1CC[C@@H](C)C[C@@H]1OC(=O)C[C@@H](NC(=O)CN)c1ccccc1 [#18]	2950	
CC(C)[C@@H]1CC[C@@H](C)C[C@H]1OC(=O)C(Cc1ccccc1)NC(=O)CN (some centres unmarked) [#19]	4280	
CC(C)[C@@H]1CC[C@@H](C)C[C@H]1C(=O)OC[C@@H](OC(=O)CNC(=O)OC(C)(C)C)c1ccccc1 [#20]	4470	
CC(C)[C@H]1CC[C@@H](C)C[C@@H]1OC(=O)C[C@@H](NC(=O)CN)c1ccccc1 [#21]	4960	
CC(C)[C@@H]1CC[C@@H](C)C[C@H]1OC(=O)[C@@H](NC(=O)[C@H](C)N)c1ccccc1 [#22]	32800	
CC(C)[C@@H]1CC[C@@H](C)C[C@H]1OC(=O)[C@@H](NC(=O)CN)c1ccccc1 [#23]	34100	
CC(C)[C@@H]1CC[C@@H](C)C[C@H]1OC(=O)CCCCCN [#25]	9500	
CC(C)[C@@H]1CC[C@@H](C)C[C@H]1C(=O)OC[C@@H](OC(=O)[C@@H]1C[C@H](C)CC[C@H]1C(C)C)c1ccccc1 [#26]	139000	
CC(C)[C@@H]1CC[C@@H](C)C[C@H]1COC(=O)C(NC(=O)CN)c1ccccc1 (some centres unmarked) [#27]	145000	
CC(C)[C@@H]1CC[C@@H](C)CC1OC(=O)c1ccccc1NC(=O)CN (some centres unmarked) [#34]	19000	
CC(C)[C@@H]1CC[C@@H](C)C[C@H]1O [L-menthol]		cooling threshold [4]: about 800 ppb
CC(C)[C@@H]1CC[C@@H](C)C[C@@H]1O [Sample 1-neomenthol, 1-neomenthol]		cooling threshold [4]: about 3,000 ppb
CC(C)[C@@H]1CC[C@@H](C)C[C@@H]1O [d-neomenthol]		cooling threshold [4]: about 25,000 ppb

Now from value to compound, other results behind:

EC50 (human TRPM8 [1]) [nM]	SMILES	further results
8.08	CC(C)[C@@H]1CC[C@@H](C)C[C@H]1C(=O)OC[C@@H](NC(=O)[C@@H](C)N)c1ccccc1.Cl [#1]	Cooling Rating (0-90) of Dentifrice ([2]; Time 0 min, wintergreen flavor, 0 = no cooling, 90 = cold as ice): 33.57; Cooling Rating (0-90) of Dentifrice ([2]; Time 15 min): 32.71; Cooling Rating (0-90) of Dentifrice ([2]; Time 30 min): 26.43; Cooling Rating (0-90) of Dentifrice ([2]; Time 60 min): 35.71; Cooling Rating (0-90) of Dentifrice ([2]; Time 120 min): 40.00; Cooling Rating (0-90) of Dentifrice ([2]; Time 180 min): 36.43; Cooling Rating (0-90) of Dentifrice ([2]; Time 240 min): 34.29; Cooling Rating (0-90) of Dentifrice ([2]; Time 300 min): 30.71; Cooling Rating (0-90) of Dentifrice ([2]; Time 360 min): 30.71; Cooling Rating (0-90) of Dentifrice ([2]; Time 420 min): 23.57; Cooling Rating (0-90) of Dentifrice ([2]; Time 480 min): 20.71
62	CC(C)[C@@H]1CC[C@@H](C)C[C@H]1OC(=O)C[C@@H](NC(=O)CN)c1ccccc1 [#2]	
64	CC(C)[C@@H]1CC[C@@H](C)C[C@H]1C(=O)OC[C@@H](NC(=O)CN)c1ccccc1 [#4]	
13	CC(C)[C@@H]1CC[C@@H](C)C[C@H]1C(=O)OC[C@@H](OC(=O)CN)c1ccccc1 [#9]	
36.8	CC(C)[C@@H]1CC[C@@H](C)C[C@H]1OC(=O)C[C@@H](NC(=O)[C@@H](C)N)c1ccccc1 [#10]	
343	CC(C)[C@@H]1CC[C@@H](C)C[C@H]1C(=O)OC[C@@H](NC(=O)[C@H](C)N)c1ccccc1 [#11]	
590	CC(C)[C@@H]1CC[C@@H](C)C[C@H]1C(=O)OC[C@@H](O)c1ccccc1 [#12]	
882	CC(C)[C@H]1CC[C@H](C)C[C@@H]1OC(=O)C[C@@H](NC(=O)CN)c1ccccc1 [#13]	
914	CC(C)[C@@H]1CC[C@@H](C)C[C@H]1OC(=O)C[C@@H](NC(=O)[C@H](C)N)c1ccccc1 [#14]	
1960	CC(C)[C@@H]1CC[C@@H](C)C[C@H]1OC(=O)CC(NCCN)c1ccccc1 (some centres unmarked) [#15]	
2070	CC(C)[C@@H]1CC[C@@H](C)C[C@H]1OC(=O)CC(NCc1ccccn1)c1ccccc1 (some centres unmarked) [#16]	
2260	CC(C)[C@@H]1CC[C@@H](C)C[C@H]1C(=O)OC[C@H](NC(=O)CN)c1ccccc1 [#17]	
